Results taken from ChEMBL document CHEMBL3272271, “Folate antagonists. 13. 2,4-Diamino-6-](alpha,alpha,alpha-trifluoro-m-tolyl)thio]quinazoline and related 2,4-diamino-6-[(phenyl- and naphthyl)thio]quinazolines, a unique class of antimetabolites with extraordinary antimalarial and antibacterial effects” (J Med Chem, 1978).
Converted amounts (≈) assume the structure as drawn. The source made the active and inactive calls. The rule behind the calls is not given here.

Tests used:
Staphylococcus aureus [1] = experiment: Antibacterial activity against Staphylococcus aureus UC-96 by gradient plate test; type: functional
Plasmodium berghei [2] = experiment: Antimalarial activity against Plasmodium berghei infected in mouse assessed as disease cure from parasite infection at 80 mg/kg, sc administered 72 hrs after infection; type: functional, organism-based; set-up: dose 80 mg/kg
Pseudomonas aeruginosa = experiment: Antibacterial activity against Pseudomonas aeruginosa 28 by gradient plate test; type: functional
Plasmodium gallinaceum [3] = experiment: Antimalarial activity against sporozoite-induced Plasmodium gallinaceum infected in white leghorn chicken assessed as disease cure from parasite infection at 240 mg/kg, sc administered 72 hrs after infection; type: functional, organism-based; set-up: dose 240 mg/kg
Staphylococcus aureus [4] = experiment: Antibacterial activity against drug-resistant Staphylococcus aureus S18713 by gradient plate test; type: functional
Plasmodium berghei [5] = experiment: Antimalarial activity against Plasmodium berghei infected in mouse assessed as increase in mean survival days of host at 10 mg/kg, sc administered 72 hrs after infection relative to control; type: functional; conditions: route subcutaneous
Shigella sonnei = experiment: Antibacterial activity against Shigella sonnei C-10 by gradient plate test; type: functional
Plasmodium berghei [6] = experiment: Antimalarial activity against Plasmodium berghei infected in mouse assessed as increase in mean survival days of host at 20 mg/kg, sc administered 72 hrs after infection relative to control; type: functional; conditions: route subcutaneous
Enterococcus faecalis = experiment: Antibacterial activity against Streptococcus faecalis MGH-2 by gradient plate test; type: functional
Escherichia coli = experiment: Antibacterial activity against Escherichia coli Vogel by gradient plate test; type: functional
Plasmodium berghei [7] = experiment: Antimalarial activity against Plasmodium berghei infected in mouse assessed as increase in mean survival days of host at 5 mg/kg, sc administered 72 hrs after infection relative to control; type: functional; conditions: route subcutaneous
Plasmodium berghei [8] = experiment: Antimalarial activity against Plasmodium berghei infected in mouse assessed as increase in mean survival days of host at 160 mg/kg, sc administered 72 hrs after infection relative to control; type: functional; conditions: route subcutaneous
Plasmodium berghei [9] = experiment: Antimalarial activity against Plasmodium berghei infected in mouse assessed as disease cure from parasite infection at 640 mg/kg, sc administered 72 hrs after infection; type: functional, organism-based; set-up: dose 640 mg/kg
Plasmodium gallinaceum [10] = experiment: Antimalarial activity against sporozoite-induced Plasmodium gallinaceum infected in white leghorn chicken assessed as increase in mean survival days of host at 15 mg/kg, sc administered 72 hrs after infection relative to control; type: functional; conditions: route subcutaneous
Plasmodium berghei [11] = experiment: Antimalarial activity against Plasmodium berghei infected in mouse assessed as increase in mean survival days of host at 40 mg/kg, sc administered 72 hrs after infection relative to control; type: functional; conditions: route subcutaneous
Plasmodium berghei [12] = experiment: Antimalarial activity against Plasmodium berghei infected in mouse assessed as increase in mean survival days of host at 80 mg/kg, sc administered 72 hrs after infection relative to control; type: functional; conditions: route subcutaneous
Plasmodium gallinaceum [13] = experiment: Antimalarial activity against sporozoite-induced Plasmodium gallinaceum infected in white leghorn chicken assessed as disease cure from parasite infection at 60 mg/kg, sc administered 72 hrs after infection; type: functional, organism-based; set-up: dose 60 mg/kg
Plasmodium gallinaceum [14] = experiment: Antimalarial activity against sporozoite-induced Plasmodium gallinaceum infected in white leghorn chicken assessed as disease cure from parasite infection at 15 mg/kg, sc administered 72 hrs after infection; type: functional, organism-based; set-up: dose 15 mg/kg
Plasmodium berghei [15] = experiment: Antimalarial activity against Plasmodium berghei infected in mouse assessed as disease cure from parasite infection at 160 mg/kg, sc administered 72 hrs after infection; type: functional, organism-based; set-up: dose 160 mg/kg
Plasmodium berghei [16] = experiment: Antimalarial activity against Plasmodium berghei infected in mouse assessed as disease cure from parasite infection at 320 mg/kg, sc administered 72 hrs after infection; type: functional, organism-based; set-up: dose 320 mg/kg
Plasmodium berghei [17] = experiment: Antimalarial activity against Plasmodium berghei infected in mouse assessed as increase in mean survival days of host at 2.5 mg/kg, sc administered 72 hrs after infection relative to control; type: functional; conditions: route subcutaneous
Plasmodium gallinaceum [18] = experiment: Antimalarial activity against sporozoite-induced Plasmodium gallinaceum infected in white leghorn chicken assessed as increase in mean survival days of host at 30 mg/kg, sc administered 72 hrs after infection relative to control; type: functional; conditions: route subcutaneous
Plasmodium gallinaceum [19] = experiment: Antimalarial activity against sporozoite-induced Plasmodium gallinaceum infected in white leghorn chicken assessed as disease cure from parasite infection at 480 mg/kg, sc administered 72 hrs after infection; type: functional, organism-based; set-up: dose 480 mg/kg
Plasmodium gallinaceum [20] = experiment: Antimalarial activity against sporozoite-induced Plasmodium gallinaceum infected in white leghorn chicken assessed as disease cure from parasite infection at 120 mg/kg, sc administered 72 hrs after infection; type: functional, organism-based; set-up: dose 120 mg/kg
Plasmodium gallinaceum [21] = experiment: Antimalarial activity against sporozoite-induced Plasmodium gallinaceum infected in white leghorn chicken assessed as disease cure from parasite infection at 30 mg/kg, sc administered 72 hrs after infection; type: functional, organism-based; set-up: dose 30 mg/kg
Plasmodium gallinaceum [22] = experiment: Antimalarial activity against trophozoite-induced Plasmodium gallinaceum infected in white leghorn chicken assessed as increase in mean survival days of host at 80 mg/kg, sc administered 72 hrs after infection relative to control; type: functional; conditions: route subcutaneous
Plasmodium gallinaceum [23] = experiment: Antimalarial activity against trophozoite-induced Plasmodium gallinaceum infected in white leghorn chicken assessed as disease cure from parasite infection at 320 mg/kg, sc administered 72 hrs after infection; type: functional, organism-based; set-up: dose 320 mg/kg
Plasmodium gallinaceum [24] = experiment: Antimalarial activity against trophozoite-induced Plasmodium gallinaceum infected in white leghorn chicken assessed as increase in mean survival days of host at 20 mg/kg, sc administered 72 hrs after infection relative to control; type: functional; conditions: route subcutaneous
Plasmodium gallinaceum [25] = experiment: Antimalarial activity against trophozoite-induced Plasmodium gallinaceum infected in white leghorn chicken assessed as increase in mean survival days of host at 320 mg/kg, sc administered 72 hrs after infection relative to control; type: functional; conditions: route subcutaneous
Gallus gallus = experiment: Toxicity in sporozoite-induced Plasmodium gallinaceum infected white leghorn chicken assessed as mortality at 480 mg/kg, sc administered 72 hrs after infection measured up to 6 days; type: organism-based; set-up: dose 480 mg/kg, route subcutaneous; conditions: in vivo
Plasmodium gallinaceum [26] = experiment: Antimalarial activity against trophozoite-induced Plasmodium gallinaceum infected in white leghorn chicken assessed as increase in mean survival days of host at 40 mg/kg, sc administered 72 hrs after infection relative to control; type: functional; conditions: route subcutaneous
Plasmodium gallinaceum [27] = experiment: Antimalarial activity against trophozoite-induced Plasmodium gallinaceum infected in white leghorn chicken assessed as increase in mean survival days of host at 10 mg/kg, sc administered 72 hrs after infection relative to control; type: functional; conditions: route subcutaneous
Plasmodium gallinaceum [28] = experiment: Antimalarial activity against trophozoite-induced Plasmodium gallinaceum infected in white leghorn chicken assessed as increase in mean survival days of host at 160 mg/kg, sc administered 72 hrs after infection relative to control; type: functional; conditions: route subcutaneous
Plasmodium berghei [29] = experiment: Ratio of quinine hydrochloride SD90 to compound SD90 for trophozoite-induced Plasmodium berghei infected in mouse assessed as daily dose required to suppression of 90% parasite infection administered with diet for 6 days; type: functional
Plasmodium berghei [30] = experiment: Antimalarial activity against trophozoite-induced Plasmodium berghei infected in mouse assessed as daily dose required to suppression of 90% parasite infection administered with diet for 6 days; type: functional

Compound | MIC (Staphylococcus aureus [1]) [µg/mL] | Activity (Plasmodium berghei [2]) | MIC (Pseudomonas aeruginosa) [µg/mL] | Activity (Plasmodium gallinaceum [3]) | MIC (Staphylococcus aureus [4]) [µg/mL] | MST (Plasmodium berghei [5]) [days] | MIC (Shigella sonnei) [µg/mL] | MST (Plasmodium berghei [6]) [days] | MIC (Enterococcus faecalis) [µg/mL] | MIC (Escherichia coli) [µg/mL] | Activity (Plasmodium berghei [9]) | MST (Plasmodium berghei [11]) [days] | MST (Plasmodium berghei [12]) [days] | Activity (Plasmodium gallinaceum [13]) | Activity (Plasmodium berghei [15]) | Activity (Plasmodium berghei [16]) | Activity (Plasmodium gallinaceum [19]) | Activity (Plasmodium gallinaceum [20]) | other results
Nc1nc(N)c2cc(Sc3c(F)c(F)cc(F)c3F)ccc2n1 | < 0.25 | Active | > 25 | Active | < 0.25 | 0.5 | 15 (≈ 44.1 µM) | 2.7 | < 0.25 | 2 (≈ 5.88 µM) | Active | 6.1 | 8.9 | Active | Active | Active | Active | Active | MST (Plasmodium berghei [7]): 0.3 days; MST (Plasmodium berghei [8]): 14.9 days; MST (Plasmodium gallinaceum [10]): 1.7 days; Activity (Plasmodium gallinaceum [14]): Active; MST (Plasmodium berghei [17]): 0.3 days; MST (Plasmodium gallinaceum [18]): 2.7 days; Activity (Plasmodium gallinaceum [21]): Active
Cc1ccc(Sc2ccc3nc(N)nc(N)c3c2)cc1 | < 0.25 | Active | > 25 | Active | < 0.25 | 2.5 | 0.5 (≈ 1.77 µM) | 3.9 | < 0.25 | < 0.25 | Active | 7.1 | 9.7 | Active | Active | Active | Active | Active | MST (Plasmodium gallinaceum [22]): 15.2 days; Activity (Plasmodium gallinaceum [23]): Active; MST (Plasmodium gallinaceum [24]): 7.6 days; MST (Plasmodium gallinaceum [25]): 20 days; Activity (Gallus gallus): Toxic; MST (Plasmodium gallinaceum [26]): 10.4 days; MST (Plasmodium gallinaceum [27]): 4.6 days; MST (Plasmodium gallinaceum [28]): 22.2 days; Ratio (Plasmodium berghei [29]): 10; SD90 (Plasmodium berghei [30]): 7.2 mg/kg/day
